In patent US20240317735A1, “HYDROISOQUINOLINE OR HYDRONAPHTHYRIDINE COMPOUNDS FOR THE TREATMENT OF AUTOIMMUNE DISEASE” (Hoffmann-La Roche Inc., priority 2020, published 2024):

Test system: embryonic stem cells (D3) and 3T3 fibroblasts
Assay: mouse Embryonic Stem Cell Test (mEST)
Type: cell-based
Conditions: <0.5 negative, >0.6 positive, 0.5-0.6 borderline
Excerpt: The in vitro mouse Embryonic Stem Cell Test (mEST) assay is an implemented routine assay at Roche. The original EST was developed by Horst Spielmann and his group in 1997 as an in vitro model for the screening of embryotoxicity, based on a blastocyst-derived permanent embryonic mouse ESC (mESC) D3 cell line derived from mouse 129 strains and was validated by European Centre for the Validation of Alternative Methods (ECVAM).
We further optimized and modified the approach allowing for the application of the assay to pharmaceutical compounds.
The cytotoxicity (inhibition of growth) of 3T3 fibroblasts, which represents differentiated cells and the cytotoxicity of undifferentiated embryonic stem cells (D3) after 10 days of substance treatment serve as two assay endpoints. This is determined by the use of dehydrogenase enzymes, which are present in the intact mitochondria of living cells to convert yellow soluble substrate 3-(4,5-dimethythiazol-2-yl)-2,5-diphenyl tetrazolium bromide (MTT) into a dark blue insoluble formazan product, which gets sequestered within the cells and is detected quantitatively using an absorbance reader (570 nm) after solubilizing the cell membrane.
The third endpoint is the inhibition of differentiation of ES cells into myocards which are cardiac muscle cells after 10 days of treatment. The beating of this cells is evaluated by microscopy.
• 1) Cell passage with trypsin 0.05% EDTA for D3 cells. • 2) Assembly of the cell suspension: dilute cells to 2.5×10^4/mL with 18 ml media (for each test) in 50 mL Falcon tubes. • 3) Prepare the petri dishes (PD): add 5-10 mL sterile Dulbecco's PBS (Gibco) into each dish bottom, distribute over the whole dish. • 4) Dilution series of test compound in Eppendorf tubes: add 5 μL of compound (1:400 dilution) and 5 μL control solution (DMSO) to 2 mL cell suspension, vortex. • 5) Preparation of hanging drops in petridishes: vortex tube, aspirate suspension with automatic pipette and multi-dispense 20 μL drops onto the lid of the petri dish, add 2 mL in total in a concentric circle of drops (˜100 drops); quickly but smoothly turn the cover and put on PD; incubate for 3 days at 37° C./5% CO2.
• 1) Dilution series of compound in 14 mL PP tubes • 6 tubes for the concentrations; fill with 5 mL assay media • 1 tube for DMSO (solvent control) fill with 5 mL assay media • 2) Dilution series of compound in Eppendorf tubes • Add 12.5 μL of compound (1:400 dilution) and 12.5 μL control solution, vortex • 3) Transfer of embryoid bodies in a bacterial Petri dish • Carefully turn PD lid, check the drops for fungus contamination • Rinse several times the drops down with 5 mL of the prepared solution • Transfer in a bacterial petri dish Incubate for 3 days at 37° C./5% CO2 […]

Structure (SMILES)	Predictive scores D12_3
C[C@H]1CN(c2ccnc3c2cnn3C)Cc2ccc(OC[C@@H]3CNCCN3)cc21 [Example 19, (4R)-4-methyl-2-(1-methylpyrazolo[3,4-b]pyridin-4-yl)-6-[[(2S)-piperazin-2-yl]methoxy]-3,4-dihydro-1H-isoquinoline]	0.05
CO[C@@H]1CN(c2ccc3c(n2)[C@@H](C)CN(c2cc(C)nc4c2cnn4C)C3)C[C@H]1N [Example 63, (3R,4R)-4-methoxy-1-[(8S)-6-(1,6-dimethylpyrazolo[3,4-b]pyridin-4-yl)-8-methyl-7,8-dihydro-5H-1,6-naphthyridin-2-yl]pyrrolidin-3-amine]	0.43
C[C@H]1CN(c2ccnc3c2cnn3C)Cc2ccc(OC[C@H]3CNCCN3)cc21 [Example 18, (4R)-4-methyl-2-(1-methylpyrazolo[3,4-b]pyridin-4-yl)-6-[[(2R)-piperazin-2-yl]methoxy]-3,4-dihydro-1H-isoquinoline]	0.11
CO[C@@H]1CN(c2ccc3c(c2)[C@@H](C)CN(c2ccnc4c2cnn4C)C3)C[C@H]1N [Example 20, (3R,4R)-4-methoxy-1-[(4R)-4-methyl-2-(1-methylpyrazolo[3,4-b]pyridin-4-yl)-3,4-dihydro-1H-isoquinolin-6-yl]pyrrolidin-3-amine]	0.49
